The results in this text go back to the NIST ThermoML archive (doi:10.1021/je100725a).

For series [1] the following is noted: Crystal.
Series [2] in a line: Molar enthalpy of transition or fusion. The following applies: Crystal; DSC.

Numbers after ± are expanded uncertainties.

Regarding `CCCCCCCCCCC(C)=O` [2-dodecanone], the Normal melting temperature in series [1] came out at 21 ± 0.6 °C; in series [1] (DTA), 21.12 ± 0.39 °C. Further, the “Molar enthalpy of transition or fusion” value in series [2] worked out at 9.44 ± 0.201 kcal/mol.
Take `CCCCCC(C)=O` [2-heptanone]: the Normal melting temperature in series [1] is -36 ± 0.6 °C; in series [1] (DTA), -36.6 ± 0.4 °C. The “Molar enthalpy of transition or fusion” value in series [2] turned out to be 4.56 ± 0.108 kcal/mol.
Taken in the same sequence, the figures for `CCCCCCCC(C)=O` [2-nonanone] were -9.8 ± 0.6 °C, -9.47 ± 0.39 °C and 6.54 ± 0.146 kcal/mol.
The matching figures for `CCCCCCCCCCCC(C)=O` [2-tridecanone]: 27.7 ± 0.6 °C, 28.60 ± 0.39 °C and 10.5 ± 0.222 kcal/mol.
With `CCCCCCCCCC(C)=O` [2-undecanone], the Normal melting temperature in series [1] was 11.7 ± 0.6 °C; in series [1] (DTA) it was 12.11 ± 0.39 °C.
Turning to `CCCCCCCCCCO` [decan-1-ol], the Normal melting temperature in series [1] was determined as 6.4 ± 0.6 °C. Moreover, the “Molar enthalpy of transition or fusion” value in series [2] came to 7.5 ± 0.165 kcal/mol.
The matching figures for `CCCCCCCCCCCCO` [dodecan-1-ol]: 23.5 ± 0.6 °C and 9.02 ± 0.194 kcal/mol.
The matching figures for `CCCCCCCCO` [octan-1-ol]: -14.5 ± 0.6 °C and 5.66 ± 0.129 kcal/mol.
